Like-named read-outs stand apart in the source and are kept apart here.
Molecular target: T1, human α7 nAChR (Homo sapiens, UniProt P36544)
T1 construct: host or cells: HEK
Test: Automated patch-clamp electrophysiology functional assay (Assay A)
Assay type: cell-based
Conditions: HEK cell line stably expressing human RIC-3 and human α7, IonFlux HT whole-cell population patch, with or without 40 μM acetylcholine
Description: The α7 nAChR positive allosteric modulator (PAM) activity of the present compounds may be tested using assays known in the art. The α7 nAChR PAMs described herein have activities in an automated patch-clamp electrophysiology functional assay as described in the examples. The assay was performed using the IonFlux HT in a whole-cell, population patch configuration. See Golden et al. Assay Drug Dev. Technol. (2011) 9:608-619. The compounds were assessed for their ability to modulate the function of the human α7 nAChR stably expressed in a HEK cell line both in the presence, and in the absence of the natural α7 agonist acetylcholine. By performing a series of such measurements at different concentrations, the effective concentration of the α7 nAChR PAMs (EC50) was determined. See Spencer et al. Assay Drug Dev. Technol. (2012) 10:313-324.
Direct activation of α7 (agonism), and potentiation of acetylcholine-evoked α7 currents was determined as follows:
Automated patch-clamp electrophysiology was performed using the IonFlux HT (Fluxion Biosciences Inc., San Francisco, CA) in the whole-cell, population patch configuration. Test compounds were assessed for their ability to modulate the function of the α7 nicotinic acetylcholine receptor both in the presence, and in the absence of the natural α7 agonist acetylcholine. A HEK cell line stably expressing both human RIC-3 and human α7 (PrecisION hnAChR α7/RIC-3, Eurofins Pharma, St. Charles, MO) was cultured in 175 cm^2 triple-layer tissue culture flasks to no more than 90% confluency in DMEM/F-12 growth media supplemented with 10% heat-inactivated fetal bovine serum, 1% non-essential amino acids, 0.625 μg/mL Puromycin, and 400 μg/mL Geneticin. Immediately prior to assay, cells were detached by first aspirating growth media, rinsing with Dulbecco's phosphate buffered saline, and then adding 10 mL of Accutase (Innovative Cell Technologies, San Diego, CA) to the flask and then incubating at 37° C. for 5 minutes. Detached cells were then recovered by the addition of 40 mL of CHO-serum-free media supplemented with 25 mM HEPES, and rocked gently in a 50 mL conical tube for 20 minutes prior to patch-clamp assay. After recovery, cells were pelleted by centrifugation at 1,000 RPM for 1 minute in a compact bench top centrifuge; recovery media was aspirated and cells were resuspended in external recording solution (150 mM NaCl, 5 mM KCl, 2 mM CaCl2, 1 mM MgCl2, 10 mM HEPES, 12 mM dextrose) to a density of 5.0×10^6 cells/mL. The cell suspension was added to the cell inlet wells on an IonFlux HT population patch plate which had previously been rinsed and primed with deionized H2O. Test compounds were serially diluted in DMSO and then resuspended to the final test concentration in external recording solution, with, or without 40 μM acetylcholine added to the external recording solution; test compounds were then transferred to the IonFlux HT population patch plate. Internal recording solution (110 mM TrisPO4, 28 mM TrisBase, 0.1 mM CaCl2, 2 mM MgCl2, 11 mM EGTA, 4 mM MgATP) was added to the internal recording solution inlet wells on the IonFlux HT patch plate previously loaded with cells and test compounds, and the plate loaded into the IonFlux HT instrument. A protocol was executed on the IonFlux HT to trap the cells, break into the cells, and establish the whole-cell recording configuration; cells were voltage-clamped at a holding potential of −60 mV for the duration of the experiment, all experiments were conducted at room temperature, and the IonFlux HT injection pressure was 8 psi for solution applications. Upon establishing the whole-cell configuration, external recording solution was perfused into the recording chambers for 120 seconds and then 40 μM acetylcholine was applied for 1 second and immediately washed off with external recording solution for 60 seconds. […]

T1 sequence (P36544 23-502): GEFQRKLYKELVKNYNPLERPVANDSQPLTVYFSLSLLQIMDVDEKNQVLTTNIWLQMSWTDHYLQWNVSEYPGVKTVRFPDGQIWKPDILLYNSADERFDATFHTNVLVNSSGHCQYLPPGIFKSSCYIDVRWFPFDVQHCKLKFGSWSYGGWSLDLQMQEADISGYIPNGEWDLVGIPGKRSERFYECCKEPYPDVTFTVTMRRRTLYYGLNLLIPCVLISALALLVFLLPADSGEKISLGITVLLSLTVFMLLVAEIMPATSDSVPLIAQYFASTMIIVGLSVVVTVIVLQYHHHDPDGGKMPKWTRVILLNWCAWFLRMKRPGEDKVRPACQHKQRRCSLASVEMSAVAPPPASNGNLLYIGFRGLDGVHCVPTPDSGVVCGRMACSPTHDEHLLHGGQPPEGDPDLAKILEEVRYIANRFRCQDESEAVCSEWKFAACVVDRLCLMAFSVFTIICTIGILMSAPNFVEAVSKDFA

Row | Compound | EC50 (read-out: α7 nAChR EC50) [nM] | EC50 (read-out: α7 nAChR Potency) [nM]
1 | Cc1cc(C)n(-c2cccc(OC[C@@H]3CC34CCN(S(N)(=O)=O)CC4)n2)n1 [Example A19, (1R)-1-({[6-(3,5-dimethyl-1H-pyrazol-1-yl)pyridin-2-yl]oxy}methyl)-6-azaspiro[2.5]octane-6-sulfonamide] | 190 | 100 to 500
2 | COc1ccc(Cl)cc1OCC1C(F)(F)C12CCN(S(N)(=O)=O)CC2 (single isomer, unassigned) [Example A2, 2-[(5-chloro-2-methoxyphenoxy)methyl]-1,1-difluoro-6-azaspiro[2.5]octane-6-sulfonamide] | 25 | ≤ 100
3 | NS(=O)(=O)N1CCC2(CC1)C(COc1cccc(OCC(F)(F)F)c1)C2(F)F (single isomer, unassigned) [Example A30, 1,1-difluoro-2-{[3-(2,2,2-trifluoroethoxy)phenoxy]methyl}-6-azaspiro[2.5]octane-6-sulfonamide] | 58 | ≤ 100
4 | COc1cccc(OC[C@@H]2CC23CCN(S(N)(=O)=O)CC3)n1 [Example A51, (1R)-1-{[(6-methoxypyridin-2-yl)oxy]methyl}-6-azaspiro[2.5]octane-6-sulfonamide] | 570 | 500 to 5000
5 | NS(=O)(=O)N1CCC2(CC1)C(COc1ccnc(OCC(F)(F)F)c1)C2(F)F (single isomer, unassigned) [Example A33, 1,1-difluoro-2-({[2-(2,2,2-trifluoroethoxy)pyridin-4-yl]oxy}methyl)-6-azaspiro[2.5]octane-6-sulfonamide] | 20 | ≤ 100
6 | NS(=O)(=O)N1CCC2(CC1)C(CSc1nnnn1-c1ccccc1)C2(F)F (single isomer, unassigned) [Example A62, 1,1-difluoro-2-{[(1-phenyl-1H-tetrazol-5-yl)sulfanyl]methyl}-6-azaspiro[2.5]octane-6-sulfonamide] | 2000 | 500 to 5000
7 | CC(C)(C)c1cccc(OC[C@@H]2CC23CCN(S(N)(=O)=O)CC3)n1 [Example A55, (1R)-1-{[(6-tert-butylpyridin-2-yl)oxy]methyl}-6-azaspiro[2.5]octane-6-sulfonamide] |  | 500 to 5000
8 | NS(=O)(=O)N1CCC2(CC1)C[C@H]2COc1cccc(NCC(F)(F)F)n1 [Example 10, (1R)-1-[({6-[(2,2,2-Trifluoroethyl)amino]pyridin-2-yl}oxy)methyl]-6-azaspiro[2.5]octane-6-sulfonamide] | 74 | ≤ 100
9 | NS(=O)(=O)N1CCC2(CC1)C(COc1noc(-c3ccccc3)n1)C2(F)F (single isomer, unassigned) [Example A21, 1,1-difluoro-2-{[(5-phenyl-1,2,4-oxadiazol-3-yl)oxy]methyl}-6-azaspiro[2.5]octane-6-sulfonamide] | 1100 | 500 to 5000
10 | NS(=O)(=O)N1CCC2(CC1)CC2COc1ccnc(C(F)(F)F)c1 (stereo not drawn) [Example 5, 1-({[2-(Trifluoromethyl)pyridin-4-yl]oxy}methyl)-6-azaspiro[2.5]octane-6-sulfonamide] | 3200 | 500 to 5000
11 | NS(=O)(=O)N1CCC2(CC1)C(CCc1ccc(F)cc1C(F)(F)F)C2(F)F (stereo not drawn) [Example 18, 1,1-Difluoro-2-{2-[4-fluoro-2-(trifluoromethyl)phenyl]ethyl}-6-azaspiro[2.5]octane-6-sulfonamide] |  | 5000 to 50000
12 | NS(=O)(=O)N1CCC2(CC1)C(CSc1ccc(C(F)(F)F)cc1)C2(F)F (single isomer, unassigned) [Example A44, 1,1-difluoro-2-({[4-(trifluoromethyl)phenyl]sulfanyl}methyl)-6-azaspiro[2.5]octane-6-sulfonamide] | 150 | 100 to 500
13 | COc1ccc(F)c(OCC2CC23CCN(S(N)(=O)=O)CC3)c1 (racemic) [Example A26, 1-[(2-fluoro-5-methoxyphenoxy)methyl]-6-azaspiro[2.5]octane-6-sulfonamide] | 650 | 500 to 5000
14 | Cc1ccn(-c2cccc(OC[C@@H]3CC34CCN(S(N)(=O)=O)CC4)n2)n1 [Example A50, (1R)-1-({[6-(3-methyl-1H-pyrazol-1-yl)pyridin-2-yl]oxy}methyl)-6-azaspiro[2.5]octane-6-sulfonamide] | 250 | 100 to 500
15 | NS(=O)(=O)N1CCC2(CC1)C(COc1ccc(F)cc1C(F)(F)F)C2(F)F (single isomer, unassigned) [Example A10, 1,1-difluoro-2-{[4-fluoro-2-(trifluoromethyl)phenoxy]methyl}-6-azaspiro[2.5]octane-6-sulfonamide] | 1500 | 500 to 5000

The remaining lines, values ahead:

Row | EC50 (read-out: α7 nAChR EC50) [nM] | EC50 (read-out: α7 nAChR Potency) [nM] | Compound
16 | 89 | ≤ 100 | NS(=O)(=O)N1CCC2(CC1)C(COc1cc(F)ccc1C(F)(F)F)C2(F)F (single isomer, unassigned) [Example A8, 1,1-difluoro-2-{[5-fluoro-2-(trifluoromethyl)phenoxy]methyl}-6-azaspiro[2.5]octane-6-sulfonamide]
17 | 640 | 500 to 5000 | CC(C)c1cccc(OC[C@@H]2CC23CCN(S(N)(=O)=O)CC3)n1 [Example A53, (1R)-1-({[6-(propan-2-yl)pyridin-2-yl]oxy}methyl)-6-azaspiro[2.5]octane-6-sulfonamide]
18 | 550 | 500 to 5000 | NS(=O)(=O)N1CCC2(CC1)C(COc1ccnc(OCC(F)(F)F)c1)C2(F)F (single isomer, unassigned) [Example A34, 1,1-difluoro-2-({[2-(2,2,2-trifluoroethoxy)pyridin-4-yl]oxy}methyl)-6-azaspiro[2.5]octane-6-sulfonamide]
19 | 730 | 500 to 5000 | NS(=O)(=O)N1CCC2(CC1)CC2COc1ccnc(OC(F)F)c1 (stereo not drawn) [Example 1, 1-({[2-(Difluoromethoxy)pyridin-4-yl]oxy}methyl)-6-azaspiro[2.5]octane-6-sulfonamide]
20 | 19 | ≤ 100 | NS(=O)(=O)N1CCC2(CC1)C(COc1cccc(OCC(F)(F)F)n1)C2(F)F (single isomer, unassigned) [Example A40, 1,1-difluoro-2-({[6-(2,2,2-trifluoroethoxy)pyridin-2-yl]oxy}methyl)-6-azaspiro[2.5]octane-6-sulfonamide]
21 | 74 | ≤ 100 | NS(=O)(=O)N1CCC2(CC1)C[C@H]2COc1cccc(OCC(F)(F)F)n1 [Example A37, (1R)-1-({[6-(2,2,2-trifluoroethoxy)pyridin-2-yl]oxy}methyl)-6-azaspiro[2.5]octane-6-sulfonamide]
22 | 4100 | 500 to 5000 | NS(=O)(=O)N1CCC2(CC1)C[C@@H]2COc1noc(-c2ccccc2)n1 [Example A13, (1S)-1-{[(5-phenyl-1,2,4-oxadiazol-3-yl)oxy]methyl}-6-azaspiro[2.5]octane-6-sulfonamide]
23 | 120 | 100 to 500 | COc1ccc(Cl)cc1OCC1CC12CCN(S(N)(=O)=O)CC2 (racemic) [Example A42, 1-[(5-chloro-2-methoxyphenoxy)methyl]-6-azaspiro[2.5]octane-6-sulfonamide]
24 | 470 | 100 to 500 | NS(=O)(=O)N1CCC2(CC1)CC2COc1cc(F)ccc1C(F)(F)F (single isomer, unassigned) [Example A15, 1-{[5-fluoro-2-(trifluoromethyl)phenoxy]methyl}-6-azaspiro[2.5]octane-6-sulfonamide]
25 | 52 | ≤ 100 | COc1ccc(Cl)cc1SC[C@@H]1CC12CCN(S(N)(=O)=O)CC2 [Example 11, (1R)-1-{[(5-Chloro-2-methoxyphenyl)sulfanyl]methyl}-6-azaspiro[2.5]octane-6-sulfonamide]

From patent publication US12331022B2, “Spiropiperidine allosteric modulators of nicotinic acetylcholine receptors” (Merck Sharp & Dohme LLC, priority 2019, dated 2025)
